Measured values published in patent US20160324992A1, “IDENTIFICATION AND TREATMENT OF VULNERABLE PLAQUES” (OTTAWA HEART INSTITUTE RESEARCH CORPORATION, priority 2015, published 2016).

Assays:
[1] = system: bone-marrow-derived macrophages (BMDMs); format: cell-based
Protocol: (§1) Bone-marrow derived macrophages. Bone-marrow derived macrophages (BMDMs) were isolated from femurs of adult VVT or Rip3^−/− mice and differentiated into macrophages using DMEM supplemented with 10% FBS and 1% penicillin-streptomycin plus either 20% L929 conditioned media or 20 ng/mL mouse M-CSF for 7-10 days. To polarize macrophages to M1 or M2, BMDMs were incubated on day 7 with 1 μg/mL LPS and 100 ng/mL IFNγ or 10 ng/mL IL-4 respectively for 24 h. Damage Associated Molecular Patterns (DAMPs) were obtained by subjecting BMDMs to 3×30 min freeze-thaw cycle or treatment with 100 ng/mL LPS and 50 μM zVAD.fmk for 24 hours, after which the media was collected and added to naïve cells at indicated ratios.
(§2) Cell viability assays. Cell death was determined by measuring lactate dehydrogenase (LDH) release into the media. Briefly, cells were treated with 100 μg/ml oxLDL in the presence or absence of 25 μM zVAD.fmk or 50 μM necrostatin-1 (Nec-1) for 24 hours and media was collected and centrifuged to pellet cell debris. The amount of LDH in media was measured in a kinetic assay by adding PBS containing 0.02% NADH and 0.03% sodium pyruvate and measuring absorbance at 340 nm for 10 minutes at 1 minute intervals. The slope of the curve provides a measure of cell death, which was expressed as fold change relative to control.
as §1, with “Rip3−/−” for “Rip3^−/−”
as §2, with “ug/ml” for “μg/ml”, “uM” for “μM”

RIP3 = test: Western blot of RIP3 phosphorylation (band shift) in BMDMs; format: cell-based, mouse
Protocol: Western blot analysis. For western blot analysis of RIP3, cells were lysed in 1.25×sample buffer (83 mM Tris pH 6.8, 6.7% SDS, 13.3% Glycerol, 1.3% β-mercaptoethanol, 0.03% bromophenol blue) and boiled at 100° C. for 5 minutes prior to being subjected to SDS-PAGE and western blot analysis as previously described (Robinson et al., 2012). PVDF membranes were blocked with 5% skim milk, followed by incubation with RIP3 (ProSci Inc, 1:500) or HSP90 (Santa Cruz Biotechnology, 1:1000) antibodies. For analysis of MLKL protein, cells were lysed in ice-cold M2 lysis buffer (50 mM NaF, 20 mM Tris, pH 7.0, 0.5% NP40, 250 mM NaCl, 3 mM EDTA, 3 mM EGTA, supplemented with Roche protease and phosphatase inhibitor cocktails) for 30 mins before centrifugation to pellet insoluble component. Samples were mixed 3:1 with 4×sample loading buffer (Bio-Rad) prior to SDS PAGE and western blot analysis. PVDF membranes were blocked in 5% BSA and probed with MLKL (Millipore, 1:500) or GAPDH (Millipore, 1:1000) antibodies. Goat anti-mouse (1:2500) or anti-rabbit (1:5000) or anti-rat (1:2500) IRDye® secondary antibodies (Rockland) were utilized. The protein bands were visualized using Odyssey Infrared Imaging System (LI-COR Biotechnology).
Western blot analysis. […]

CN1C(=O)C(Cc2c[nH]c3ccccc23)NC1=S (stereo not drawn) [Nec-1, necrostatin-1]
cell death with compound alone (in words) [1]: did not promote cell death | cell death (LDH release), fold change relative to control ([1]; BMDMs, 100 μg/mL oxLDL + 50 μM Nec-1, 24 h, oxLDL alone 3.9±0.6-fold, mean±SEM): 2.3±0.4 fold | inhibition of oxLDL+zVAD.fmk-induced cell death (in words) ([1]; BMDMs, oxLDL + zVAD.fmk + Nec-1, 24 h): similarly inhibited | inhibition of oxLDL-induced cell death (in words) ([1]; M2-polarized macrophages, oxLDL 24 h): similarly inhibited | RIP3 phosphorylation induced by oxLDL and DAMPs (in words) (RIP3; BMDMs co-incubated with oxLDL and DAMPs, 8 hours): can be inhibited | oxLDL-induced RIP3 phosphorylation (in words) (RIP3; BMDMs, oxLDL±zVAD.fmk±Nec-1, 8 hours): dampened
